Data reported in patent US20090191131A1, “USE OF PARTICULATE CONTRAST AGENTS IN DIAGNOSTIC IMAGING FOR STUDYING PHYSIOLOGICAL PARAMATERS” (priority 1998, published 2009).

Experiments:
[1] = phosphatidylcholines; cited from earlier work
[2] = Temperature sensitivity of in vitro T1 relaxivity (r1), 0.47 T; assay type: physicochemical
Text: FIG. 1 of the accompanying drawings and Table 5 below show the temperature sensitivity of in vitro T1 relaxivity (r1) for liposome encapsulated GdDTPA-BMA and GdHPDO3A, respectively (0.47T).

[3] = cited from earlier work

SMILES	Transition temperature Tc [1] [°C]	also measured
CCCCCCCCCCCCCCCCC(=O)OC[C@H](COP(=O)([O-])OCC[N+](C)(C)C)OC(=O)CCCCCCCCCCCCCCCC [PC 17:0]	48	
CCCCCCCCCCCCCCCCCC(=O)O[C@H](COC(=O)CCCCCCCCCCCCC)COP(=O)([O-])OCC[N+](C)(C)C [PC 14:0-18:0]	40	
CCCCCCCCCCCCCCCCCC(=O)O[C@H](COC(=O)CCCCCCCCCCCCCCC)COP(=O)([O-])OCC[N+](C)(C)C [PC 16:0-18:0]	49	
CCCCCCCCCCCCCCCCCCCCCCCC(=O)OC[C@H](COP(=O)([O-])OCC[N+](C)(C)C)OC(=O)CCCCCCCCCCCCCCCCCCCCCCC [PC 24:0]	80	
CCCCCCCCCCCCCCCC(=O)O[C@H](COC(=O)CCCCCCCCCCCCC)COP(=O)([O-])OCC[N+](C)(C)C [PC 14:0-16:0]	35	
CCCCCCCCCCCCCCCCCCCCC(=O)OC[C@H](COP(=O)([O-])OCC[N+](C)(C)C)OC(=O)CCCCCCCCCCCCCCCCCCCC [PC 21:0]	72	
CCCCCCCCCCCCCCCCCCCCCCC(=O)OC[C@H](COP(=O)([O-])OCC[N+](C)(C)C)OC(=O)CCCCCCCCCCCCCCCCCCCCCC [PC 23:0]	79	
CC(O)CN1CCN(CC(=O)[O-])CCN(CC(=O)[O-])CCN(CC(=O)[O-])CC1.[Gd+3] (stereo not shown) [Control, GdHPDO3A]		r1 ([2]; 20 °C): 4.53 s⁻¹ mM⁻¹; r1 ([2]; 25 °C): 4.27 s⁻¹ mM⁻¹; r1 ([2]; 30 °C): 3.94 s⁻¹ mM⁻¹; r1 ([2]; 37 °C): 3.75 s⁻¹ mM⁻¹; r1 ([2]; 45 °C): 3.07 s⁻¹ mM⁻¹; r1 ([2]; 55 °C): 2.82 s⁻¹ mM⁻¹; r1 ([2]; 60 °C): 2.54 s⁻¹ mM⁻¹
CCCCCCCCCCCCCCCCCC(=O)OC[C@H](COP(=O)([O-])OCC[N+](C)(C)C)OC(=O)CCCCCCCCCCCCCCC [PC 18:0-16:0]	44	
CCCCCCCCCCC/C=C\CCCCC(=O)OC[C@H](COP(=O)([O-])OCC[N+](C)(C)C)OC(=O)CCCC/C=C\CCCCCCCCCCC [PC 18:1c6]	1	
CCCCCCCCCCCCCCC(=O)OC[C@H](COP(=O)([O-])OCC[N+](C)(C)C)OC(=O)CCCCCCCCCCCCCC [PC 15:0]	33	
CCCCCCCC/C=C/CCCCCCCC(=O)OC[C@H](COP(=O)([O-])OCC[N+](C)(C)C)OC(=O)CCCCCCC/C=C/CCCCCCCC [PC 18:1t9]	12	
CCCCCCCCCCCCC(=O)OC[C@H](COP(=O)([O-])OCC[N+](C)(C)C)OC(=O)CCCCCCCCCCCC [PC 13:0]	14	
CCCCCCCCCCCCCCCCCCCCCC(=O)OCC(COP(=O)([O-])OCC[N+](C)(C)C)OC(=O)CCCCCCCCCCCCCCCCCCCCC (stereo not shown) [PC 22:0, Dibehenoyl-PC]	75	
CCCCCCCCCCCCOC(=O)C(C)n1ccnc1 (stereo not shown) [DIP]		pKa [3]: 6.8; charged form ([3]; lysosomal pH (5.2)): over 97%; non-ionized (non/low surfactant activity) form ([3]; pH 7.3-7.4 (physiological)): 80%
CCCCCCCC/C=C\CCCCCCCC(=O)OC[C@H](COP(=O)([O-])OCC[N+](C)(C)C)OC(=O)CCCCCCC/C=C\CCCCCCCC [PC 18:1c9]	−20	
CCCCCCCCCCCCCCCCCCCC(=O)OC[C@H](COP(=O)([O-])OCC[N+](C)(C)C)OC(=O)CCCCCCCCCCCCCCCCCCC [PC 20:0]	66	
